Reference: US20020058701A1 (priority 2000, published 2002)

How the values were obtained:
[1] = Body weights and food consumption in diabetic db/db mice; assay type: in vivo
Method: (§1) Genetically altered obese diabetic mice (designated C57BL/ks diabetic or db/db) were purchased from the Jackson Laboratory (Bar Harbor, Me., USA), and served as experimental animals. Male animals between the ages of 8-9 weeks were employed in the studies described here. Animals were housed (4 mice/cage) under standard laboratory conditions at 22° C. and 50% relative humidity, and were maintained on a diet of Purina rodent chow and water ad libitum. Prior to treatment, blood was collected from the tail vein of each animal. Mice that had plasma glucose levels between 350 and 600 mg/dL were used. Each treatment group consisted of eight mice that were distributed so that the mean glucose levels were equivalent in each group at the start of the study. Db/db mice received, orally by gavage: the experimental compound administered at 62.5, 125, or 250 mg/kg/day (unless otherwise noted), or metformin administered at […] for 1-3 days. Test compounds were delivered in a liquid vehicle containing 0.25% (w/v) carboxymethyl-cellulose, 1% (v/v) Tween […] (polyoxyethylene sorbitan monosterate), and up to 10% (v/v) dimethyl sulfoxide (DMSO) in a volume of 10 ml/kg. Blood was sampled from the tail vein at three hours, six, eight, twenty-four, and thirty hours post-administration (the first administration) of the particular compound in non-fasted conditions. Experiments 3-5 also sampled blood at fifty-four hours post-administration (the first administration) of the particular compound in non-fasted conditions. Blood samples were analyzed for plasma glucose levels. Individual body weights and mean food consumption (each cage) were also measured daily.

[2] = system: C57BL/ks diabetic (db/db) mice; assay: Glucose-lowering (plasma glucose) in diabetic db/db mice; assay type: in vivo; conditions: for Change in Glucose (mg/dL) 54 H: 54 h after initial dose
Method: as §1
The isolated test substances were prepared as described previously (vide supra). Metformin (1,1-dimethylbiguanide), carboxymethyl cellulose and Tween 60 were purchased from Sigma Chemical Co. (St. Louis, Mo., USA; catalog #'s D-5035, C-4888, and p-1629, respectively). Plasma glucose levels were determined colorimetrically using glucose oxidase (Sigma Chemical Co.; Sigma catalog #315). Significant differences between groups (comparing compound-treated to vehicle-treated) were evaluated using analysis of variance and Fisher's post-hoc test.
Vehicle, metformin (250 mg/kg) or enriched extract (1000 mg/kg) were given to db/db mice at 0(initial), 8, 24, 32, 48, 56, 72, 80, and 96 hours post initial dose.
Plasma glucose levels were measured at baseline, 3 (day 1), 51 hours (Day 3), and 99 hours (Day 5).

## COc1cc(O)cc(CCc2ccccc2)c1CC=C(C)C [Compound E]
[1]; 125 mg/kg, vehicle 6.0, Table 9
  Food Intake (g/mouse) 0-48 h: 5.7 g/mouse
[1]; 125 mg/kg, vehicle 6.1, Table 11
  Food Intake (g/mouse) 0-48 h: 5.7 g/mouse
[1]; 125 mg/kg, vehicle 39.4 ± 0.4, Table 11
  Body weight (g/mouse) (mean) 0 h: 39.6 ± 0.3 g/mouse
[1]; 125 mg/kg, vehicle 39.8 ± 0.7, Table 9
  Body weight (g/mouse) (mean) 0 h: 39.5 ± 0.5 g/mouse
[1]; 125 mg/kg, vehicle 39.7 ± 0.6, Table 9
  Body weight (g/mouse) (mean) 48 hr: 39.7 ± 0.6 g/mouse
[1]; 125 mg/kg, vehicle 40.1 ± 0.4, Table 11
  Body weight (g/mouse) (mean) 48 hr: 40.2 ± 0.4 g/mouse
[1]; 125 mg/kg, Tables 9 and 11
  adverse effect on food intake or body weight (in words): absence of any significantly adverse effect
[2]; 125 mg/kg q.d. oral at 0, 24, 48 h, 6 h after initial dose, vehicle 15.5, Table 8
  Change in Glucose (mg/dL) 6 H: -2.1 mg/dL
[2]; 125 mg/kg q.d. oral at 0, 24, 48 h, 6 h after initial dose, vehicle 20.0, Table 10
  Change in Glucose (mg/dL) 6 H: -53.8 mg/dL
[2]; 125 mg/kg q.d. oral at 0, 24, 48 h, 30 h after initial dose, vehicle 0.1, Table 10
  Change in Glucose (mg/dL) 30 H: -109.9 mg/dL
[2]; 125 mg/kg q.d. oral at 0, 24, 48 h, 30 h after initial dose, vehicle 56.6, Table 8
  Change in Glucose (mg/dL) 30 H: -47.0 mg/dL
[2]; 125 mg/kg q.d. oral at 0, 24, 48 h, vehicle 88.6, Table 8
  Change in Glucose (mg/dL) 54 H: -54.7 mg/dL
[2]; 125 mg/kg q.d. oral at 0, 24, 48 h, vehicle −20.2, Table 10
  Change in Glucose (mg/dL) 54 H: -86.6 mg/dL
[2]; Table 8, 125 mg/kg, fifty-four hours after initial dosing, value = size of decline
  mean glucose levels declined from baseline values: 54.7 mg/dL
[2]; Table 8, printed dose 250 mg/kg, thirty hours after initial dosing, value = size of decline
  mean glucose levels declined from the baseline value: 47.0 mg/dL
[2]; Table 10, 125 mg/kg, fifty-four hours after initial dosing, value = size of decline
  mean glucose levels declined from baseline values: 86.6 mg/dL
[2]; Table 10, 125 mg/kg, six hours after initial dosing, value = size of decline
  mean glucose levels declined from the baseline value: 53.8 mg/dL
[2]; Table 10, 125 mg/kg, thirty hours after initial dosing, value = size of decline
  mean glucose levels declined from the baseline value: 109.9 mg/dL
[2]; oral, dose level of 125 mg/kg, Tables 8 and 10
  reduction in plasma glucose relative to vehicle (control) (in words): statistically significant reduction

## CN(C)C(=N)NC(=N)N [Metformin, 1,1-dimethylbiguanide, reference compound]
[1]; 250 mg/kg, vehicle 6.0, Table 9
  Food Intake (g/mouse) 0-48 h: 5.4 g/mouse
[1]; 250 mg/kg, vehicle 6.3, Tables 5 and 7
  Food Intake (g/mouse) 0-48 h: 5.1 g/mouse
[1]; 250 mg/kg, vehicle 39.2 ± 0.5, Tables 5 and 7
  Body weight (g/mouse) (mean) 0 h: 37.3 ± 0.7 g/mouse
[1]; 250 mg/kg, vehicle 39.8 ± 0.7, Table 9
  Body weight (g/mouse) (mean) 0 h: 40.6 ± 0.4 g/mouse
[1]; 250 mg/kg, vehicle 39.5 ± 0.5, Tables 5 and 7
  Body weight (g/mouse) (mean) 48 hr: 37.2 ± 0.6 g/mouse
[1]; 250 mg/kg, vehicle 39.7 ± 0.6, Table 9
  Body weight (g/mouse) (mean) 48 hr: 40.5 ± 0.4 g/mouse
[2]; 250 mg/kg q.d. oral at 0, 24, 48 h, 6 h after initial dose, vehicle 35.9, Tables 4 and 6
  Change in Glucose (mg/dL) 6 H: -180.4 mg/dL
[2]; 250 mg/kg q.d. oral at 0, 24, 48 h, 30 h after initial dose, vehicle 79.6, Tables 4 and 6
  Change in Glucose (mg/dL) 30 H: -112.4 mg/dL
[2]; 250 mg/kg q.d. oral at 0, 24, 48 h, vehicle 60.3, Tables 4 and 6
  Change in Glucose (mg/dL) 54 H: -41.3 mg/dL
[2]; Table 8, metformin 250 mg/kg, fifty-four hours after the initial dose, value = size of rise
  glucose levels rose: 6.8 mg/dL
[2]; Table 8, metformin 250 mg/kg, six hours after the initial dose, value = size of decline
  lowered plasma glucose levels by: approximately 113.6 mg/dL
[2]; Table 8, metformin 250 mg/kg, thirty hours after the initial dose, value = size of decline
  lowered plasma glucose levels by: ~25.1 mg/dL
[2]; Tables 4 and 6, 250 mg/kg, fifty-four hours after initial dosing, value = size of decline
  mean glucose levels declined from the baseline values: 41.3 mg/dL
[2]; Tables 4 and 6, 250 mg/kg, six hours after initial dosing, value = size of decline
  mean glucose levels declined (lowered) from the baseline value: approximately 180.4 mg/dL
[2]; Tables 4 and 6, 250 mg/kg, thirty hours after initial dosing, value = size of decline
  mean glucose levels declined (lowered) from the baseline values: ~112.4 mg/dL
[2]; metformin 250 mg/kg q.d. oral, 6 h after initial dose, vehicle 15.5, Table 8
  Change in Glucose (mg/dL) 6 H: -113.6 mg/dL
[2]; metformin 250 mg/kg q.d. oral, 30 h after initial dose, vehicle 56.6, Table 8
  Change in Glucose (mg/dL) 30 H: -25.1 mg/dL
[2]; metformin 250 mg/kg q.d. oral, vehicle 88.6, Table 8
  Change in Glucose (mg/dL) 54 H: 6.8 mg/dL
[2]; metformin 250 mg/kg, same schedule as extracts, 3 h post initial dose, vehicle −80.9
  Day 1 glucose: -180.5 mg/dL
[2]; metformin 250 mg/kg, same schedule as extracts, 51 h post initial dose, vehicle −77.1
  Day 3 glucose: -207.5 mg/dL
[2]; metformin 250 mg/kg, same schedule as extracts, 99 h post initial dose, vehicle +102.1
  Day 5 glucose: -86.4 mg/dL

## COc1cc(O)cc(/C=C/c2ccccc2)c1 [Compound B, 3-hydroxy-5-methoxystilbene]
[1]; 250 mg/kg, 0-24 h, vehicle 6.8, Table 3
  Food Intake (g/mouse) 0-24 h: 5.9 g/mouse
[1]; 250 mg/kg, vehicle 38.0 ± 0.8, Table 3
  Body weight (g/mouse) (mean) 0 h: 37.8 ± 0.4 g/mouse
[1]; 250 mg/kg, 24 hr, vehicle 37.8 ± 0.8, Table 3
  Body weight (g/mouse) (mean) 24 hr: 37.8 ± 0.4 g/mouse
[2]; 250 mg/kg oral, dosed at 0, 8 and 24 h, 3 h after initial dose, vehicle −8.0, Table 1
  Change in Glucose (mg/dL) 3 h: -35.3 mg/dL
[2]; 250 mg/kg oral, dosed at 0, 8 and 24 h, 6 h after initial dose, vehicle 64.5, Table 1
  Change in Glucose (mg/dL) 6 h: +29.3 mg/dL
[2]; 250 mg/kg oral, dosed at 0, 8 and 24 h, 8 h after initial dose, vehicle 79.5, Table 2
  Change in Glucose (mg/dL) 8 h: +52.2 mg/dL
[2]; 250 mg/kg oral, dosed at 0, 8 and 24 h, 24 h after initial dose, vehicle 18.6, Table 2
  Change in Glucose (mg/dL) 24 h: -50.6 mg/dL
[2]; 250 mg/kg oral, dosed at 0, 8 and 24 h, 30 h after initial dose, Table 2
  Change in Glucose (mg/dL) 30 h: +36.5 mg/dL
